Assay results: US20230257435A1, “Wound Healing Composition and Uses Thereof” (AGENCY FOR SCIENCE, TECHNOLOGY AND RESEARCH, priority 2020, published 2023)

Assays:
[1] = tested on: keratinocytes and dermal fibroblasts; experiment: In vitro scratch wound-healing assay; format: cell-based, human and mouse
Protocol: (§1) A confluent monolayer of control and Agrin depleted cells in a 6-well plate was subjected to a unidirectional scratch using a 20 μl pipette tip. This was followed by washing with 1×PBS at room temperature and incubation in complete culture media at 37° C. and 5% CO2 with or without sAgrin used as indicated. Phase contrast images of the wound area were taken periodically at the indicated time-points. For some wound-healing migration assays, keratinocytes were cultured on either soft or stiff substrates within a stencil barrier (Nalge Nunc., Inc) for 18 h. Upon removal of the barrier, the cells were allowed to migrate and imaged using an Axiovert 200 inverted microscope at indicated time-points.

mouse skin explants = experiment: Mouse skin explant assay (keratinocyte outgrowth); format: cell-based; conditions: soft matrix with 20 μg/ml sAgrin; MMP408 5 nM, 5 days
Protocol: Three days old ICR strain mouse pups were sacrificed and the hind skin on either side of the midline in the shoulder region was washed in 70% ethanol and excised using scalpel. The excised skin was washed in 70% ethanol and placed (dermis side down) on the pre-made gel substrates of defined stiffness, either in the absence or presence of 20 μg/ml sAgrin. The explants were allowed to adhere for 2 h before adding the keratinocyte culture medium (DMEM) containing 300 μM Ca^2+ as described previously^31. The keratinocyte outgrowth and the skin tissues regularly imaged under an Axiovert-200 inverted microscope and were subsequently fixed in 4% paraformaldehyde and immunostained for Keratin 17 antibody.
Tissue culture plates were coated with Col-T-gel (Fischer Scientific) of stiffness ranging from 0.8 KPa (soft) to 30 KPa (stiff) as per manufacturer recommendations and allowed to solidify for 40 min at 37° C. inside tissue culture incubators. Some experiments were performed with cells seeded on the poly-hydrogel plates of defined stiffness: 0.2 kPa and 16 kPa soft and hard polyhydrogels, respectively (CytoSoft, Advanced Biomatrix, Inc.,). The determination of stiffness of silicone substrates were done by the manufacturer as per previously published protocols. For certain experiments, indicated amounts of sAgrin was incorporated into the 0.8 KPa collagen gels before gelation process. Upon gelation, trypsinized cells or excised mouse skin explants were plated onto the gels of different stiffness either alone or containing sAgrin. The cells/tissues were incubated under standard culture condition with 500 μl recommended culture medium for the indicated days. The crossbow shaped micropatterns with fibronectin coated islands were generated by microlithography on a 19.5×19.5 mm coverslide from Cytoo, Inc., France. The micropatterns had surface areas of 800μ^2 or 1600μ^2, respectively. Fifty thousand cells after initial siRNA treatment was placed on the micropatterns for 4-6 h before processing them for immunofluorescence. […]

[2] = tested on: phosphorylated myosin light chain (pMLC); experiment: Actomyosin cables / pMLC activation after wound scratch; format: cell-based, human; conditions: 10 μm Blebbistatin 2 h before scratch
Protocol: Indicated cells post-manipulation were washed twice with cold Phosphate buffered saline (PBS) and lysed with cold 1% NP-40 lysis buffer supplemented with 1× protease inhibitor cocktail (Roche Applied Biosciences) for 15 mins at 4° C. The cell lysate was centrifuged at 13,000 rpm for 15 min. This was followed by protein estimation using Bradford reagent. Subsequently, […] of total protein was mixed with an equal volume of 2× Laemmli sample buffer and heated at 95° C. for 5 mins. This was followed by resolution with SDS-PAGE gel. The resolved proteins were transferred onto nitrocellulose membrane and blocked in 5% skimmed milk reconstituted in 1×PBS containing 0.1% Tween-20, and probed overnight with the respective primary antibody. The membrane was then washed with 1×PBS supplemented with 0.1% Tween-20: three times at 15 min intervals. This was followed by 1 h incubation in conjugated horseradish peroxidase HRP secondary antibody (Santa Cruz Biotechnology). Post-incubation, the blot was again washed three times as above and then overlaid with enhanced chemiluminescence (ECL) substrate (Pierce/Bio-Rad) and visualized on X-ray film by image processor or digitally by Chemidoc analyzer (Bio-Rad). The density of the various bands was quantified using the Image-J software.
Cells were cultured on eight-well chamber slides or coverslips over-night. Cells were then washed twice with PBS and fixed for 15 min with 4% paraformaldehyde. Subsequently, the cells were permeabilized for 15 min with 0.1% Triton X in Phosphate buffered saline containing 1 mM Ca^+2 and 1 mM Mg^+2 (PBSCM) at room temperature. The permeabilized cells were incubated with indicated antibodies in fluorescent dilution buffer (FDB) for 1-2 h at RT or overnight at 4° C., followed by 5 washes with PBSCM and incubation with secondary antibody; Alexa Fluor (Thermo Fisher Scientific) for 1 h at RT. Slides were again washed five times with PBSCM and mounted with Vectashield medium containing DAPI. The stained cells were then imaged by a Zeiss confocal microscope. The images were processed and analyzed by Zen blue software. Intensity measurements were acquired using tool selection parameter in image analysis within the Zen blue software.
as §1

pMLC = experiment: Force transmission via ligand conjugated magnetic beads; format: cell-based, human; conditions: siAgrin cells
Protocol: The ligands were conjugated to 4.5 μm epoxide paramagnetic beads (Dynabeads M-450 Epoxy, Thermo Fisher Scientific) according to the manufacturer's manual. Briefly, the beads were washed twice in 0.1 M sodium phosphate buffer, pH 7.4. Subsequently. 8×10^7 beads were conjugated to 20 μg sAgrin, BSA and FN per in 0.1 M sodium phosphate buffer at pH 7.4 for 16-18 h at 4° C. with gentle rotation throughout. The degree of protein conjugation to the beads was verified by a reducing SDS-PAGE gel analysis using a subset of ligand conjugated beads. The remaining beads were washed and subsequently stored in 0.1% BSA-phosphate buffered saline (PBS) pH 7.4 at 4° C. They were subsequently suspended in medium and added on the cells for 30 min at 37° C. After a brief wash with PBS to remove excess non-adherent beads, the cells were placed under a permanent neodymium magnet (J Magnetics, USA) at a distance of 6 mm apart for another 30 min that allowed a vertical tensile force in the magnitudes of ˜200 pN on the beads. The cells were then fixed in 4% paraformaldehyde, permeabilized and processed for immunofluorescence.

Question: How did the “migration of sAgrin induced K17 expressing keratinocytes” value ([1]; 5 nM MMP408, soft substrates and normal culture conditions) turn out when `COC(=O)Nc1ccc2oc3cc(S(=O)(=O)N[C@H](C(=O)O)C(C)C)ccc3c2c1` [MMP408, reference compound] was run?
Answer: Its value is “blunted the migration of sAgrin induced K17 expressing keratinocytes”.

Question: What about the “sAgrin induced K17 expressing migratory outgrowth” value (mouse skin explants) of the same molecule?
Answer: Its value is “abruptly abolished”.

Question: What does the source list for `Cc1ccc2c(c1)C(=O)C1(O)CCN(c3ccccc3)C1=N2` (centres unmarked) [blebbistatin, reference compound]?
Answer: sAgrin induced actomyosin cables [2]: abolished; sAgrin induced migration post-wound injury ([1]; 10 μm Blebbistatin, 18 h post-wounding): abolished the sAgrin induced migration

B1: syndecan-4: Syndecan-4 conjugated to magnetic beads (protein, UniProt P31431 19-198, looked up)
Syndecan-4: ESIRETEVIDPQDLLEGRYFSGALPDDEDVVGPGQESDDFELSGSGDLDDLEDSMIGPEVVHPLVPLDNHIPERAGSGSQVPTEPKKLEENEVIPKRISPVEESEDVSNKVSMSSTVQGSNIFERTEVLAALIVGGIVGILFAVFLILLLMYRMKKKDEGSYDLGKKPIYKKAPTNEFYA
modifications: conjugated to magnetic beads
notes: Syndecan-4 conjugated to magnetic beads
Question: Which “rescue of reduced pMLC in Agrin depleted cells by force through ligand beads” value (pMLC) does the source give for B1 here?
Answer: The value was “rather insufficient to rescue myosin mechanotension”.
